Measurements taken from article PMC10300102, “In vivo inhibition of nuclear ACE2 translocation protects against SARS-CoV-2 replication and lung damage through epigenetic imprinting” (Nature Communications, 2023).
Where a SMILES comes first, the peptide text is derived from it. The star is where a group is joined. Myristoyl = CCCCCCCCCCCCCC(=O)*

Columns and labels:
[1] = hamsters, escalating daily i.p. doses up to 100 mg/kg
[2] = test system: importin-α ΔIBB protein / ACE2 FITC peptide (ACE2-IMPα complex); experiment: Fluorescence polarization competition assay; format: binding; conditions: Fig. 1b, c: EMSA, microscale thermophoresis and fluorescence polarization
Experimental: Fluorescence polarization assays were performed using the CLARIOstar Plus plate reader (BMG Labtech, Ortenberg, Germany) with the fluorescein-Ahx-tagged ACE2 peptide sequence ^766[…]^779 manufactured by GeneScript Biotech (Piscataway, NJ), NACE2i peptide sequence MYR-[…]-OH manufactured by Mimitopes Pty Ltd (Melbourne, Australia), and recombinantly expressed importin-α ΔIBB protein. Each assay contained 50 nM ACE2 FITC, 10 μM importin-α ΔIBB protein, and two-fold serially-diluted NACE2i (starting concentration 400 μM) across 10 wells in a total volume of 200 μL. Fluorescence polarization readings were taken using 96-well black Fluotrac microplates (Greiner Bio-One, Kremsmünster, Austria). Assays were repeated in triplicate and contained a negative control (no inhibitor) and blank (no importin-α ΔIBB protein). Triplicate data were normalized and fitted to a single inhibition curve using GraphPad Prism (GraphPad Software, La Jolla, CA).

CCCCCCCCCCCCCC(=O)N[C@H](C(=O)NCC(=O)N[C@H](C(=O)N[C@@H](CCCNC(=N)N)C(=O)N[C@@H](CC(=O)O)C(=O)N[C@@H](CCCNC(=N)N)C(=O)N[C@@H](CCCCN)C(=O)N[C@@H](CCCCN)C(=O)N[C@@H](CCCCN)C(=O)N[C@@H](CC(N)=O)C(=O)N[C@@H](CCCCN)C(=O)N[C@@H](C)C(=O)N[C@@H](CCCNC(=N)N)C(=O)N[C@@H](CO)C(=O)O)[C@@H](C)CC)[C@@H](C)O [NACE2i] (Myristoyl-TGIRDRKKKNKARS-OH)
body temperature [1]: minimal changes in body temperature
body weight [1]: without a decrease in body weight
discomfort [1]: no observable discomfort
inhibition of the ACE2-IMPα complex in vitro [2]: directly inhibiting the ACE2-IMPα complex
